# Measured values published in the supplement of paper PMC8149375.
# Columns and labels:
# Settings in all cases: treatment: drug + dasatinib (fixed dose, not stated); 5 days
# [1] = system: 769-P; experiment: GI50 of drug in presence of dasatinib; higher = less potent
# Experimental: (§1)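 Primary HTS combination arm: 8 RCC cell lines treated with 8 doses (up to 10 uM) of each library drug plus a fixed dose of dasatinib (dose not stated) for 5 days; viability read by CellTiter-Glo and normalised to DMSO. GI50 was fitted with XLfit, AUC is the area under the dose-response curve, and minimum viability is the lowest fraction of DMSO viability across doses.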
# [2] = system: 786-O; experiment: as above
# Experimental: as §1
# [3] = system: A498; experiment: as above
# Experimental: as §1
# [4] = system: ACHN; experiment: as above
# Experimental: as §1
# [5] = system: CAKI-1; experiment: as above
# Experimental: as §1
# [6] = system: SN12C; experiment: as above
# Experimental: as §1
# [7] = system: TK-10; experiment: as above
# Experimental: as §1
# [8] = system: UO-31; experiment: as above
# Experimental: as §1
# [9] = system: 769-P; experiment: minimum viability across doses, drug + dasatinib, relative to DMSO (fraction); higher = less growth inhibition
# Experimental: as §1
# [10] = system: 786-O; experiment: as above
# Experimental: as §1
# [11] = system: A498; experiment: as above
# Experimental: as §1
# [12] = system: ACHN; experiment: as above
# Experimental: as §1
# [13] = system: CAKI-1; experiment: as above
# Experimental: as §1
# [14] = system: SN12C; experiment: as above
# Experimental: as §1
# [15] = system: TK-10; experiment: as above
# Experimental: as §1
# [16] = system: UO-31; experiment: as above
# Experimental: as §1
# [17] = system: 769-P; experiment: AUC of dose-response viability curve, drug + dasatinib, normalised to DMSO (arbitrary (AUC of normalised viability)); higher = less growth inhibition
# Experimental: as §1
# [18] = system: 786-O; experiment: as above
# Experimental: as §1
# [19] = system: A498; experiment: as above
# Experimental: as §1
# [20] = system: ACHN; experiment: as above
# Experimental: as §1
# [21] = system: CAKI-1; experiment: as above
# Experimental: as §1
# [22] = system: SN12C; experiment: as above
# Experimental: as §1
# [23] = system: TK-10; experiment: as above
# Experimental: as §1
# [24] = system: UO-31; experiment: as above
# Experimental: as §1
compound,measurement,setting,value
OCc1ccc(-c2ccc(-c3ccc(CO)s3)o2)s1 + Cc1nc(Nc2ncc(C(=O)Nc3c(C)cccc3Cl)s2)cc(N2CCN(CCO)CC2)n1 [dasatinib],GI50 of drug,[1],9.16 nM
same,GI50 of drug,[2],18 nM
same,GI50 of drug,[3],1700 nM
same,GI50 of drug,[4],69.6 nM
same,GI50 of drug,[5],4.49 nM
same,GI50 of drug,[6],219 nM
same,GI50 of drug,[7],15 nM
same,GI50 of drug,[8],917 nM
same,minimum viability across doses,[9],0.0624
same,minimum viability across doses,[10],0.0022
same,minimum viability across doses,[11],0.292
same,minimum viability across doses,[12],0.0471
same,minimum viability across doses,[13],0.00172
same,minimum viability across doses,[14],0.0563
same,minimum viability across doses,[15],0.0365
same,minimum viability across doses,[16],0.0841
same,AUC of dose-response viability curve,[17],0.925
same,AUC of dose-response viability curve,[18],1.04
same,AUC of dose-response viability curve,[19],2.69
same,AUC of dose-response viability curve,[20],1.2
same,AUC of dose-response viability curve,[21],0.396
same,AUC of dose-response viability curve,[22],1.8
same,AUC of dose-response viability curve,[23],0.849
same,AUC of dose-response viability curve,[24],3.23
C=CCc1cccc(/C=N/NC(=O)CN2CCN(Cc3ccccc3)CC2)c1O [PAC-1] + Cc1nc(Nc2ncc(C(=O)Nc3c(C)cccc3Cl)s2)cc(N2CCN(CCO)CC2)n1 [dasatinib],GI50 of drug,[1],1420 nM
same,GI50 of drug,[2],427 nM
same,GI50 of drug,[3],4840 nM
same,GI50 of drug,[4],174 nM
same,GI50 of drug,[5],1350 nM
same,GI50 of drug,[6],3460 nM
same,GI50 of drug,[7],764 nM
same,GI50 of drug,[8],2010 nM
same,minimum viability across doses,[9],0.0266
same,minimum viability across doses,[10],0.0103
same,minimum viability across doses,[11],0.169
same,minimum viability across doses,[12],0.0168
same,minimum viability across doses,[13],0.0701
same,minimum viability across doses,[14],0.0519
same,minimum viability across doses,[15],0.0728
same,minimum viability across doses,[16],0.0141
same,AUC of dose-response viability curve,[17],2.17
same,AUC of dose-response viability curve,[18],1.73
same,AUC of dose-response viability curve,[19],3.38
same,AUC of dose-response viability curve,[20],1.49
same,AUC of dose-response viability curve,[21],2.07
same,AUC of dose-response viability curve,[22],2.41
same,AUC of dose-response viability curve,[23],2.04
same,AUC of dose-response viability curve,[24],3.14
CN1CCN(C2CCN(C(=O)Nc3cc(Oc4ccc(NC(=O)C5(C(=O)Nc6ccc(F)cc6)CC5)c(F)c4)ccn3)CC2)CC1 [Golvatinib (E7050)] + Cc1nc(Nc2ncc(C(=O)Nc3c(C)cccc3Cl)s2)cc(N2CCN(CCO)CC2)n1 [dasatinib],GI50 of drug,[1],3670 nM
same,GI50 of drug,[2],434 nM
same,GI50 of drug,[3],9520 nM
same,GI50 of drug,[4],368 nM
same,GI50 of drug,[5],541 nM
same,GI50 of drug,[6],1620 nM
same,GI50 of drug,[7],886 nM
same,GI50 of drug,[8],3090 nM
same,minimum viability across doses,[9],0.131
same,minimum viability across doses,[10],0.0302
same,minimum viability across doses,[11],0.335
same,minimum viability across doses,[12],0.0563
same,minimum viability across doses,[13],0.0248
same,minimum viability across doses,[14],0.191
same,minimum viability across doses,[15],0.154
same,minimum viability across doses,[16],0.0151
same,AUC of dose-response viability curve,[17],2.3
same,AUC of dose-response viability curve,[18],1.93
same,AUC of dose-response viability curve,[19],3.93
same,AUC of dose-response viability curve,[20],1.63
same,AUC of dose-response viability curve,[21],1.89
same,AUC of dose-response viability curve,[22],2.19
same,AUC of dose-response viability curve,[23],2.09
same,AUC of dose-response viability curve,[24],4.48
COc1cc(Nc2ncc(F)c(Nc3ccc4c(n3)N(COP(=O)(O)O)C(=O)C(C)(C)O4)n2)cc(OC)c1OC [R788 (Fostamatinib)] + Cc1nc(Nc2ncc(C(=O)Nc3c(C)cccc3Cl)s2)cc(N2CCN(CCO)CC2)n1 [dasatinib],GI50 of drug,[1],993 nM
same,GI50 of drug,[2],366 nM
same,GI50 of drug,[3],> 10000 nM
same,GI50 of drug,[4],183 nM
same,GI50 of drug,[5],195 nM
same,GI50 of drug,[6],983 nM
same,GI50 of drug,[7],963 nM
same,GI50 of drug,[8],2400 nM
same,minimum viability across doses,[9],0.0614
same,minimum viability across doses,[10],0.199
same,minimum viability across doses,[11],0.61
same,minimum viability across doses,[12],0.04
same,minimum viability across doses,[13],0.00427
same,minimum viability across doses,[14],0.179
same,minimum viability across doses,[15],0.254
same,minimum viability across doses,[16],0.0153
same,AUC of dose-response viability curve,[17],2
same,AUC of dose-response viability curve,[18],1.88
same,AUC of dose-response viability curve,[19],3.69
same,AUC of dose-response viability curve,[20],1.45
same,AUC of dose-response viability curve,[21],1.47
same,AUC of dose-response viability curve,[22],2.02
same,AUC of dose-response viability curve,[23],2.16
same,AUC of dose-response viability curve,[24],3.58
O=C1NC(=O)/C(=C/c2ccc3c(c2)OC(F)(F)O3)S1 + Cc1nc(Nc2ncc(C(=O)Nc3c(C)cccc3Cl)s2)cc(N2CCN(CCO)CC2)n1 [dasatinib],GI50 of drug,[1],> 10000 nM
same,GI50 of drug,[2],> 10000 nM
same,GI50 of drug,[3],> 10000 nM
same,GI50 of drug,[4],> 10000 nM
same,GI50 of drug,[5],> 10000 nM
same,GI50 of drug,[6],> 10000 nM
same,GI50 of drug,[7],> 10000 nM
same,GI50 of drug,[8],> 10000 nM
same,minimum viability across doses,[9],0.679
same,minimum viability across doses,[10],0.543
same,minimum viability across doses,[11],0.925
same,minimum viability across doses,[12],0.538
same,minimum viability across doses,[13],0.634
same,minimum viability across doses,[14],0.645
same,minimum viability across doses,[15],0.655
same,minimum viability across doses,[16],1.28
same,AUC of dose-response viability curve,[17],2.51
same,AUC of dose-response viability curve,[18],2.32
same,AUC of dose-response viability curve,[19],3.79
same,AUC of dose-response viability curve,[20],2.11
same,AUC of dose-response viability curve,[21],2.42
same,AUC of dose-response viability curve,[22],2.34
same,AUC of dose-response viability curve,[23],2.52
same,AUC of dose-response viability curve,[24],4.77
COc1ccc(C2=NC(c3ccc(Cl)cc3)C(c3ccc(Cl)cc3)N2C(=O)N2CCNC(=O)C2)c(OC(C)C)c1 (stereo not drawn) [Nutlin-3] + Cc1nc(Nc2ncc(C(=O)Nc3c(C)cccc3Cl)s2)cc(N2CCN(CCO)CC2)n1 [dasatinib],GI50 of drug,[1],> 10000 nM
same,GI50 of drug,[2],> 10000 nM
same,GI50 of drug,[3],> 10000 nM
same,GI50 of drug,[4],2000 nM
same,GI50 of drug,[5],2420 nM
same,GI50 of drug,[6],> 10000 nM
same,GI50 of drug,[7],> 10000 nM
same,GI50 of drug,[8],> 10000 nM
same,minimum viability across doses,[9],0.519
same,minimum viability across doses,[10],0.707
same,minimum viability across doses,[11],0.905
same,minimum viability across doses,[12],0.2
same,minimum viability across doses,[13],0.168
same,minimum viability across doses,[14],0.712
same,minimum viability across doses,[15],0.665
same,minimum viability across doses,[16],0.583
same,AUC of dose-response viability curve,[17],2.54
same,AUC of dose-response viability curve,[18],2.83
same,AUC of dose-response viability curve,[19],3.61
same,AUC of dose-response viability curve,[20],1.89
same,AUC of dose-response viability curve,[21],2.15
same,AUC of dose-response viability curve,[22],2.62
same,AUC of dose-response viability curve,[23],2.5
same,AUC of dose-response viability curve,[24],4.46
CN1CCN(c2nc(C3=C(c4c[nH]c5ccccc45)C(=O)NC3=O)c3ccccc3n2)CC1 [Sotrastaurin (AEB071)] + Cc1nc(Nc2ncc(C(=O)Nc3c(C)cccc3Cl)s2)cc(N2CCN(CCO)CC2)n1 [dasatinib],GI50 of drug,[1],> 10000 nM
same,GI50 of drug,[2],> 10000 nM
same,GI50 of drug,[3],> 10000 nM
same,GI50 of drug,[4],> 10000 nM
same,GI50 of drug,[5],> 10000 nM
same,GI50 of drug,[6],> 10000 nM
same,GI50 of drug,[7],> 10000 nM
same,GI50 of drug,[8],> 10000 nM
same,minimum viability across doses,[9],0.673
same,minimum viability across doses,[10],0.674
same,minimum viability across doses,[11],0.904
same,minimum viability across doses,[12],0.536
same,minimum viability across doses,[13],0.555
same,minimum viability across doses,[14],0.661
same,minimum viability across doses,[15],0.663
same,minimum viability across doses,[16],1.16
same,AUC of dose-response viability curve,[17],2.3
same,AUC of dose-response viability curve,[18],3.14
same,AUC of dose-response viability curve,[19],3.6
same,AUC of dose-response viability curve,[20],2.04
same,AUC of dose-response viability curve,[21],2.44
same,AUC of dose-response viability curve,[22],2.45
same,AUC of dose-response viability curve,[23],2.84
same,AUC of dose-response viability curve,[24],4.79
